Assay results published in paper PMC5562778 (Archives of Toxicology, 2017).

What was measured:
[1] = design: method as in Van Den Berg et al. [2011]; conditions: lower confidence bound of the Benchmark Dose giving 10% extra cancer incidence; ref Van Den Berg et al. [2011]; cited from earlier work
CYP 1A2 [2] = biological target: T1, CYP 1A2 (Homo sapiens, UniProt P05177); conditions: pH 7.4
T1 sequence (P05177 1-516): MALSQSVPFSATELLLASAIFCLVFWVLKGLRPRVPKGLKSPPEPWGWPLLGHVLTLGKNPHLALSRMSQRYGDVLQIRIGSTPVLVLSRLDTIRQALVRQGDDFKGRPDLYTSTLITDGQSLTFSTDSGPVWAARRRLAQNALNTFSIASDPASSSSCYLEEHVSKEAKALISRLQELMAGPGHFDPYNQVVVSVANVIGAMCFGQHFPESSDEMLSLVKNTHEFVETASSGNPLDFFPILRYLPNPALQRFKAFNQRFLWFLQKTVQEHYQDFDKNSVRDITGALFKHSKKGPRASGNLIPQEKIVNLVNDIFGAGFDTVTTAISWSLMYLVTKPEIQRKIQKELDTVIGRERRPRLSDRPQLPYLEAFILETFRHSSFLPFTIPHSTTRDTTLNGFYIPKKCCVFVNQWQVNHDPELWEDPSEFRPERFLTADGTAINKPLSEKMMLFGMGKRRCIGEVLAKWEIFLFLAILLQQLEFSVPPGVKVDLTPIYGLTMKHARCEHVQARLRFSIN
Description: The quality of the Chinese and Caucasian liver microsomes was checked by measuring the activity of CYP1A2 and CYP2A6 by the method of Yang et al. ([2012]). The quality of Chinese and Caucasian liver S9 samples was checked by measuring the SULT activity based on the method provided by Wang et al. ([2006]). The details of the methods for the microsomal and S9 in vitro incubations and UPLC analysis for assessing the metabolic capabilities of CYP and SULT enzymes can be found in the supporting materials 1.
The quality of the Chinese and Caucasian liver microsomes was checked by measuring the activity of CYP 1A2 and CYP 2A6 by the method of Yang et al. (Yang et al. 2012). CYP 1A2 and CYP 2A6 are predominant enzymes for formation of 1'-hydroxyestragole (Jeurissen et al. 2007). The activity of CYP 1A2 was measured with the substrate phenacetin, and the activity of CYP 2A6 was checked using the substrate coumarin. […] The samples were centrifuged for 5 min at 16, 000g to precipitate microsomal proteins and analyzed by UPLC.
Before UPLC analysis, all samples were centrifuged for 5 min at 16, 000g to precipitate microsomal or cytosolic proteins. Supernatant of each sample was analyzed on UPLC using a BEH C18 (1.7 μm 2.1×50 mm) column with a guard column and a diode array detector (Acquity, Waters).

[3] = design: method as in Bartoli et al. [1996]; conditions: peak at 0.5–2 h; clearance within 7 h of administration; marker for CYP1A2 activity; ref Bartoli et al. [1996]; cited from earlier work
CYP 1A2 [4] = biological target: T1, CYP 1A2; conditions: cited from earlier work
[5] = PBK prediction; route not stated; ref Barter et al. [2013]; cited from earlier work
[6] = route not stated; ref Barter et al. [2013]; cited from earlier work

Catalytic efficiency of CYP 1A2 mediated conversion, lower in Chinese than Caucasian liver microsomes (CYP 1A2 [2]; microsomes) [fold]	Catalytic efficiency (Vmax/Km), CYP 1A2 mediated O-deethylation (CYP 1A2 [2])	Compound	BMDL10 [1]	Peak plasma concentrations and apparent oral clearance, Chinese versus Caucasian subjects [3]	Catalytic efficiency of CYP 1A2, lower for Chinese liver microsomes (CYP 1A2 [4]) [fold]	Catalytic efficiency for CYP 1A2 (CYP 1A2 [4]; microsomes)	Predicted clearance, lower in Chinese than in Caucasian subjects [5] [%]	Experimentally observed clearance, lower in Chinese individuals than in Caucasian volunteers [6] [%]
		C=CCc1ccc(OC)cc1 [Estragole, 1-allyl-4-methoxybenzene]	3.3–6.5 mg/kg bw/day					
3	3.1 µl/min/(mg microsomal protein)	CCOc1ccc(NC(C)=O)cc1 [phenacetin]		not differ	2	0.6-51.4 µl/min/(mg microsomal protein)	36	28
